{"source": "PubChem BioAssay AID1963451", "about": "(Molecular Pharmacology Branch, DTP, NCI, 2024)", "test_system": "521955-158-R6-J3-PDC complex spheroid growth, % test/control", "test": "Anticancer human tumor 521955-158-R6-J3-PDC patient-derived pancreatic carcinoma cell line growth inhibition [Asc]", "conditions": "for viability, T/C: stronger effect = lower value", "method": "Multicellular complex tumor spheroid response to apoptosis pathway targeting inhibitors Alrizomadlin, Pelcitoclax, and Dasminapant in combination with a variety of drugs and investigational agents in selected tumor cell lines\nThe MDM2 inhibitor alrizomadlin, the Bcl-2/Bcl-xL inhibitor pelcitoclax, and the IAPs inhibitor dasminapant were evaluated both individually and in combination with standard of care and investigational anticancer small molecules within a complex spheroid model of solid tumors. . Complex spheroids include a stromal component modeled by human endothelial cells (HUVEC) and fibroblasts modeled by human mesenchymal stem cells (MSCs). The concentration ranges selected for each drug and investigational agent were based upon clinically achievable concentrations if the clinical Cmax of the agent was known.\nCompounds. The drugs and investigational agents: alrizomadlin (APG-115; NSC831270), pelcitoclax (APG-1252; NSC835773), dasminapant (APG-1387;NSC834197), TAK-243 (NSC785004), copanlisib (NSC809693), olaparib (NSC753686), talazoparib (NSC767125), cobimetinib (NSC 768068), eltanexor (KPT-8602, NSC 794443), abemaciclib (NSC 768073), sotorasib (NSC818433), adagrasib (NSC 831453), MRTX-1133 (NSC 836407), Iadademestat (ORY1001, NSC 806812), and RMC-4630 (NSC839698), were obtained from the NCI Developmental Therapeutics Program Chemical Repository. The FDA-approved anticancer drug set is available from the Developmental Therapeutics Program at https://dtp.cancer.gov/organization/dscb/obtaining/available plates.htm. […] The stock solutions were prepared in dimethyl sulfoxide (DMSO, Sigma-Aldrich, St. Louis, MO, cat. D2650) at 800-fold the tested concentration and stored at -70 degrees C prior to their use. All drugs and investigational agents were tested over a range starting from a high concentration at or near the clinical Cmax and decreasing in half-log increments. If the clinical Cmax for an agent had not been determined, the highest concentration tested was 10 microM.\nThe patient-derived cancer (PDC) cell lines include five colon adenocarcinomas: 186277-243-T-J2-PDC, 616215-338-R-J1-PDC, 439559-082-T-J2-PDC, 463943-066-T-J2-PDC, and 519858-162-T-J1-PDC; three pancreatic carcinomas: 323965-272-R-J2-PDC, 521955-158-R6-J3-PDC, and 521955-158-R2-J5-PDC; two uterine sarcomas: 327498-152-R-J2-PDC and 993429-296-R-J1-PDC; two rhabdomyosarcomas: 755483-174-R-J1-PDC and 772245-204-R-J1-PDC; two soft tissue sarcomas: 126254-015-R-J1-PDC and 494315-158-R-J1-PDC; two malignant fibrous histiocytomas: 317291-083-R-J1-PDC and 596521-263-R-J1-PDC; two breast carcinomas: 171881-019-R-J1-PDC and 885512-296-R-J2-PDC; and one ovarian carcinoma: 6556581-035-R-J-PDC were obtained from the NCI PDMR, (https://pdmr.cancer.gov). The established cell lines HSSY-2 synovial sarcoma (RRID:CVCL 8719), SYO-1 synovial sarcoma (RRID:CVCL_7146), MPNST malignant peripheral neural sheath tumor were obtained from the Sloan Kettering Institute. The following established cell lines were purchased from the American Type Culture Collection (ATCC, Manassas, VA), Sor the received from the NCI repository:, PANC-1 pancreatic carcinoma (CRL-1469, RRID:CVCL_0480), OVCAR-5 ovarian carcinoma (RRID:CVCL_1628), OVCAR-8 ovarian carcinoma (RRID:CVCL_1629), , MCF-7 breast carcinoma (CRL-12584, RRID:CVCL_0031), MDA-MB-231 breast carcinoma (CRL-12532, RRID:CVCL_0062), NCI-H1876 small cell lung carcinoma (CRL-5902, RRID:CVCL_1503), NCI-H510A small cell lung carcinoma (HTB-184, RRID:CVCL_1565), NCI-H1417 (CRL-5869, RRID:CVCL_1469), and NCI-H196 small cell lung carcinoma (CRL-5823, RRID:CVCL_1509). Dr. Peter Houghton (Greehey Children's Cancer Research Institute, University of Texas Health Science Center, San Antonio, TX) provided Rh-18 rhabdomyosarcoma (RRID:CVCL_1659). Pooled donor human umbilical vein endothelial cells (HUVEC, Lonza, cat. CC-2519) and human mesenchymal stem cells (hMSC, Lonza, cat. PT-2501) were purchased from Lonza (Walkersville, MD).\nCell Culture. […]", "note": "“And” between values parts separate entries of the source, which are not always exact repeats. Equal entries are not always repeated.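 Note: spheroids exposed to compounds for 7 days.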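 Throughout, for viability, T/C: 100% = DMSO vehicle control wells.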", "data": [{"smiles": "CCN1C(C(=O)NC23CCC(C(=O)O)(CC2)CC3)C(c2cccc(Cl)c2F)C2(C(=O)Nc3cc(Cl)ccc32)C12CCCCC2", "note": "(centres undefined) + Cc1c(S(C)(=O)=O)c(-c2cc(F)cc(N3CCN(c4ccc(NS(=O)(=O)c5ccc(NC(CCN6CCC(C(=O)OCCCP(=O)(O)O)CC6)CSc6ccccc6)c(S(=O)(=O)C(F)(F)F)c5)cc4)CC3)c2)c(-c2ccc(Cl)cc2)n1C(C)C", "values": [{"measurement": "IC50", "setting": "curve of first compound, second compound 0.0316 µM", "result": "> 3000", "unit": "nM"}, {"measurement": "IC50", "setting": "curve of first compound, second compound 0.1 µM", "result": "> 3000", "unit": "nM"}, {"measurement": "IC50", "setting": "curve of first compound, second compound 0.316 µM", "result": "< 9.49", "unit": "nM"}, {"measurement": "IC50", "setting": "curve of first compound, second compound 1 µM", "result": "< 9.49", "unit": "nM"}, {"measurement": "IC50", "setting": "curve of first compound, second compound 3.16 µM", "result": "< 9.49", "unit": "nM"}, {"measurement": "IC50", "setting": "curve of first compound, second compound 10 µM", "result": "< 9.49", "unit": "nM"}, {"measurement": "viability, T/C", "setting": "second compound 0.0316 µM, first compound 0.00949 µM", "result": 102, "unit": "%"}, {"measurement": "viability, T/C", "setting": "second compound 0.0316 µM, first compound 0.03 µM", "result": 78.8, "unit": "%"}, {"measurement": "viability, T/C", "setting": "second compound 0.0316 µM, first compound 0.0949 µM", "result": 72.6, "unit": "%"}, {"measurement": "viability, T/C", "setting": "second compound 0.0316 µM, first compound 0.3 µM", "result": 70.7, "unit": "%"}, {"measurement": "viability, T/C", "setting": "second compound 0.0316 µM, first compound 0.949 µM", "result": 84.2, "unit": "%"}, {"measurement": "viability, T/C", "setting": "second compound 0.0316 µM, first compound 3 µM", "result": 73.2, "unit": "%"}, {"measurement": "viability, T/C", "setting": "second compound 0.1 µM, first compound 0.00949 µM", "result": 77.7, "unit": "%"}, {"measurement": "viability, T/C", "setting": "second compound 0.1 µM, first compound 0.03 µM", "result": 75.7, "unit": "%"}, {"measurement": "viability, T/C", "setting": "second compound 0.1 µM, first compound 0.0949 µM", "result": 67.4, "unit": "%"}, {"measurement": "viability, T/C", "setting": "second compound 0.1 µM, first compound 0.3 µM", "result": 66.5, "unit": "%"}, {"measurement": "viability, T/C", "setting": "second compound 0.1 µM, first compound 0.949 µM", "result": 69.4, "unit": "%"}, {"measurement": "viability, T/C", "setting": "second compound 0.1 µM, first compound 3 µM", "result": 50.8, "unit": "%"}, {"measurement": "viability, T/C", "setting": "second compound 0.316 µM, first compound 0.00949 µM", "result": 49.2, "unit": "%"}, {"measurement": "viability, T/C", "setting": "second compound 0.316 µM, first compound 0.03 µM", "result": 51.8, "unit": "%"}, {"measurement": "viability, T/C", "setting": "second compound 0.316 µM, first compound 0.0949 µM", "result": 44, "unit": "%"}, {"measurement": "viability, T/C", "setting": "second compound 0.316 µM, first compound 0.3 µM", "result": 45.4, "unit": "%"}, {"measurement": "viability, T/C", "setting": "second compound 0.316 µM, first compound 0.949 µM", "result": 41.2, "unit": "%"}, {"measurement": "viability, T/C", "setting": "second compound 0.316 µM, first compound 3 µM", "result": 31.7, "unit": "%"}, {"measurement": "viability, T/C", "setting": "second compound 1 µM, first compound 0.00949 µM", "result": 41.2, "unit": "%"}, {"measurement": "viability, T/C", "setting": "second compound 1 µM, first compound 0.03 µM", "result": 25.7, "unit": "%"}, {"measurement": "viability, T/C", "setting": "second compound 1 µM, first compound 0.0949 µM", "result": 39.5, "unit": "%"}, {"measurement": "viability, T/C", "setting": "second compound 1 µM, first compound 0.3 µM", "result": 35, "unit": "%"}, {"measurement": "viability, T/C", "setting": "second compound 1 µM, first compound 0.949 µM", "result": 30.6, "unit": "%"}, {"measurement": "viability, T/C", "setting": "second compound 1 µM, first compound 3 µM", "result": 25.2, "unit": "%"}, {"measurement": "viability, T/C", "setting": "second compound 3.16 µM, first compound 0.00949 µM", "result": 19.7, "unit": "%"}, {"measurement": "viability, T/C", "setting": "second compound 3.16 µM, first compound 0.03 µM", "result": 17.3, "unit": "%"}, {"measurement": "viability, T/C", "setting": "second compound 3.16 µM, first compound 0.0949 µM", "result": 17.5, "unit": "%"}, {"measurement": "viability, T/C", "setting": "second compound 3.16 µM, first compound 0.3 µM", "result": 14.9, "unit": "%"}, {"measurement": "viability, T/C", "setting": "second compound 3.16 µM, first compound 0.949 µM", "result": 13.9, "unit": "%"}, {"measurement": "viability, T/C", "setting": "second compound 3.16 µM, first compound 3 µM", "result": 9.12, "unit": "%"}, {"measurement": "viability, T/C", "setting": "second compound 10 µM, first compound 0.00949 µM", "result": 14.6, "unit": "%"}, {"measurement": "viability, T/C", "setting": "second compound 10 µM, first compound 0.03 µM", "result": 11.3, "unit": "%"}, {"measurement": "viability, T/C", "setting": "second compound 10 µM, first compound 0.0949 µM", "result": 15.8, "unit": "%"}, {"measurement": "viability, T/C", "setting": "second compound 10 µM, first compound 0.3 µM", "result": 9.21, "unit": "%"}, {"measurement": "viability, T/C", "setting": "second compound 10 µM, first compound 0.949 µM", "result": 18.1, "unit": "%"}, {"measurement": "viability, T/C", "setting": "second compound 10 µM, first compound 3 µM", "result": 1.44, "unit": "%"}]}, {"smiles": "CCN1CCN(Cc2ccc(Nc3ncc(F)c(-c4cc(F)c5nc(C)n(C(C)C)c5c4)n3)nc2)CC1", "values": [{"measurement": "viability, T/C", "setting": "compound 0.00316 µM", "result": "88.9% and 113% and 94.9%"}, {"measurement": "viability, T/C", "setting": "compound 0.01 µM", "result": "105% and 115% and 102%"}, {"measurement": "viability, T/C", "setting": "compound 0.0316 µM", "result": "77.9% and 87.5% and 87.9%"}, {"measurement": "viability, T/C", "setting": "compound 0.1 µM", "result": "86.7% and 105% and 94.8%"}, {"measurement": "viability, T/C", "setting": "compound 0.316 µM", "result": "85.5% and 74.2% and 83.4%"}, {"measurement": "viability, T/C", "setting": "compound 1 µM", "result": "87.4% and 96.5% and 91.6%"}, {"measurement": "IC50", "setting": "curve of compound", "result": "> 1000", "unit": "nM"}]}]}
